O=C1NC(=O)C(c2ccccc2)(c2ccccc2)N1
solubility (mole fraction)
Conditions | 293.2 K | 298.2 K | 303.2 K | 308.2 K | 313.2 K
in n-propanol | 0.00263 | 0.00304 | 0.00329 | 0.00358 | 0.00396
in water | 1.29e-06 | 2.11e-06 | 2.42e-06 | 2.64e-06 | 2.94e-06

Source: BigSolDB 2.1
